Assay results reported in US7417109B2, “Polymers for delivering nitric oxide in vivo” (Duke University, priority 1996, dated 2008).

Legend:
[1] = cited from earlier work
[2] = Half-life and NO delivery in physiological solution (NO by method of Saville); type: physicochemical
Method: In addition, the half-lives for these compositions in physiological solution were measured. The half-life is time required for the composition to lose one half of its bound NO. The amount of NO in the composition is determined by the method of Saville, as described in Example 13.
The concentration of R—S—NO groups in a sample is based on the method reported in Saville, Analyst 83:620 (1958). By this method, R—S—NO groups are converted into an azo dye. The concentration of this dye is determined by measuring the absorbance at 540 nm (ε˜50,000 M^−1 cm^−1). The procedure is as follows:
A given volume (50 μl−1 m) of the sample to be assayed is added to an equivalent volume of solution A and solution B. The two samples are set aside for 5 minutes to allow formation of the diazonium salt, after which an equivalent volume of solution C is added to each mixture. Color formation, indicative of the azo dye product, is usually complete by 5 minutes. The sample absorbance is then read spectrophotometrically at 540 nm. The RSNO is quantified as the difference in absorbance between solution B and A. (i.e. B−A). In the event that the background nitrite concentration is high (i.e. increased background in A), the accuracy of the measurement can be increased by the addition of an equivalent volume of 0.5% ammonium sulfamate in acid (45 mM) 5 minutes prior to the addition of sulfanilamide. […]

SMILES	lifetime in physiological solution [1]	time able to deliver NO [2]
CC(C)(SN=O)C(N)C(=O)O (racemic) [S-nitroso-D,L-penicillamine]	no more than about an hour	
N[C@@H](CSN=O)C(=O)O [S-nitrosocysteine]	no more than about an hour	
CC(C)(SN=O)[C@H](N)C(=O)O [S-nitroso-penicillamine]		no more than one
